The source of these data is US20240277730A1, “SUPPRESSION OF COVID-19 REPLICATION BY COVID-19 ENTRY INHIBITORS” (Board of Regents of the University of Nebraska, priority 2021, published 2024).

pIC50: −log10 of the molar value. Values joined by “and” are separate entries in the source; they are usually repeats but may differ in a detail not shown here. Identical values can stand only once. “Also recorded” adds a separate entry of the source.

The target of data set [1] is ACE2: SARS-COV-2 Spike RBD (Homo sapiens, UniProt Q9BYF1). Kind of data set: ACE2: SARS-COV-2 Spike RBD inhibitor screening assay (ELISA kit). The arrangement: species or system SARS-COV-2 / human. The note with it: tested 0.25 to 5 μM in triplicate; read-out: IC50, inhibition of binding of SARS-COV-2 Spike RBD to ACE2. (In general: An ELISA detects its analyte on a solid surface through an enzyme-linked reagent.)
Chain of ACE2: SARS-COV-2 Spike RBD (Q9BYF1 18-740): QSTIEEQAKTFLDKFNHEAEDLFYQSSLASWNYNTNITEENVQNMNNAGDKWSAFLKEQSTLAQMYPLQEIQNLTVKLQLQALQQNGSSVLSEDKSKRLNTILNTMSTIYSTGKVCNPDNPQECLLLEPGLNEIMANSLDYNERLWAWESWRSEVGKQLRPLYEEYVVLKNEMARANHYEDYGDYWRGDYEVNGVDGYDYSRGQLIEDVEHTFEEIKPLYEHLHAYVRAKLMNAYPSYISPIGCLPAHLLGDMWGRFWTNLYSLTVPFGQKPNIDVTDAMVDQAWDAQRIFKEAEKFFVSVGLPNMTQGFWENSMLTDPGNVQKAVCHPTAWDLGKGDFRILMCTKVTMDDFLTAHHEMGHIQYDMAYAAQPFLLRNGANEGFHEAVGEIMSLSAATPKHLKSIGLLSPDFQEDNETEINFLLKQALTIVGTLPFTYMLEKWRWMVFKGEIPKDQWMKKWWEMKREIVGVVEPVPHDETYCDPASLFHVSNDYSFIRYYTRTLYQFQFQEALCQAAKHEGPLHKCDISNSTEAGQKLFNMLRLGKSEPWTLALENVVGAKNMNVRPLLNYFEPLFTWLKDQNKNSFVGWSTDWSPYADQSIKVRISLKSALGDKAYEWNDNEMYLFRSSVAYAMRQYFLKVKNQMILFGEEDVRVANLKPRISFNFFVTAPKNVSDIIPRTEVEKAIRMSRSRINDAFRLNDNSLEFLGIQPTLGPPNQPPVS

The nature of data set [2]: MTT cell viability assay, HEK293T-hACE2. As to conditions: human, HEK293T-hACE2 cells. Format: cell-based. The protocol: (§1) The MTT cell viability assay of the preferred embodiment utilized HEK-293T-hACE2. UNCN1T. Vero-STAT1 knockout, and Calu-3 cells seeded at the density of 20,000 cells/well in a 96-well plate containing 100 μl complete media specific for each cell type. Cells were incubated for 12 h at 37° C., in a humidified 5% CO2 incubator for adherence. After 12-h incubation, the media was replaced with fresh media, and HEK-293T-hACE2 cells were treated with the five compounds at concentrations ranging between 0.001 to 100 μM. The Calu-3. […] Untreated cells were considered a negative control, and DMSO treated cells were considered vehicle controls. After the treatment, cells were incubated at 37° C., in humidified 5% CO2 incubator. Seventy-two hour posttreatment. 20 μl of MTT substrate (5 mg/ml) was added to each well and incubated for 4 additional hours at 37° C., in the dark. Then the culture media was carefully removed, and blue formazan crystals were dissolved in 200 μl of DMSO, and the purple color was read at 595 nm with a reference filter of 620 nm.
Background: Tetrazolium dyes change colour on reduction, which living cells bring about.

In data set [3] the target is Hu-1 S-RBD (Severe acute respiratory syndrome coronavirus 2, UniProt P0DTC2). Kind of data set: microscale thermophoresis (MST), S-RBD alone. Type of data set: binding, SARS-COV-2. Background: Microscale thermophoresis detects binding through changes in fluorescence in a small temperature gradient.
The subject of data set [4] is SARS-COV-2. Format: cell-based.
A short description of data set [5]: in vitro. Format: cell-based. The note with it: African green monkey, Vero-STAT1 knockout cells, MTT. The protocol:
as §1

Data set [6] concerns pseudotyped lentiviral particles expressing Spike glycoprotein of SARS-COV-2. Kind of data set: microbe, parasite or virus in culture. Format: cell-based.
Data set [7] in a line: MTT cell viability assay, UNCN1T. Format: cell-based. As to conditions: human, UNCN1T cells. The procedure:
as §1

Data set [8] can be described thus: MTT cell viability assay, Calu-3. The note with it: human, Calu-3 cells. Format: cell-based. The procedure:
as §1

Data set [9] has as its system SARS-COV-2. Description: antiviral activity against live SARS-COV-2 in UNCN1T cells (RT-qPCR). Type of data set: cell-based. As to conditions: read-out: IC50, inhibition of SARS-COV-2 replication.
Data set [10] concerns SARS-COV-2. Description: microbe, parasite or virus in culture. As to conditions: read-out: IC50, inhibition of SARS-COV-2 replication. Format: cell-based.
In data set [11] the test system is SARS-COV-2. Type of data set: cell-based. This is another data set of the same source.
The mark [12] stands for this setting: Severe acute respiratory syndrome coronavirus 2.

One may read the pIC50 as −log10 of the IC50, conventionally taken in molar units. The term CC50 denotes the concentration that lowers cell viability or growth by half. The low end stands for greater toxicity to the cells, the high end for lower toxicity to the cells. In the case of `CN(C)/C=C1\N=C(c2cccnc2Oc2ccc(Cl)cc2)OC1=O` [formula (VII), (Z)-2-(2-(4-chlorophenoxy)-pyridin-3-yl)-4-((dimethyl-amino)methylene)oxazol-5(4H)-one], the negative logarithm of the IC50 (pIC50) in [1] is less than 5.30. The molecule further displayed a CC50 at 72 h in data set [2] greater than 100 µM.
`CCn1c(SCC(=O)N2CCCc3ccccc32)nnc1-c1cccs1` [formula (V), 1-(3,4-dihydroquinolin-1(2H)-yl)-2-((4-ethyl-5-(thiophen-2-yl)-4H-1,2,4-triazol-3-yl)lhio)elhanone]: the pIC50 in data set [1] was 5.72. The same molecule returned a 50% cytotoxic concentration (CC50) at 72 h in [2] greater than 100 µM.
In the case of `O=C1Nc2cc(C(F)(F)F)ccc2Oc2ccsc21` [formula (IIa), 7-(trifluoromethyl)benzo[b]-thieno[2,3-f][1,4]oxazepin-10(9H)-one], the “binding to S-RBD alone” value in data set [3] is “does not binding; also recorded: does not bind”. In addition, the “SARS-COV-2 infection compared with vehicle controls” value in data set [4] was “no significant difference”. Further, in data set [4], the “reduction in SARS-COV-2 infectivity” value is roughly 40%. For the same molecule, the half-maximal cytotoxic concentration (CC50) at 72 h in data set [5] is 7.13 µM; in [7], greater than 100 µM; in data set [8], greater than 100 µM; in data set [2], greater than 100 µM. Moreover, the “pseudotype viral entry inhibition” value in data set [6] was “significant and robust viral entry inhibition”. Also, the negative logarithm of the IC50 (pIC50) in data set [6] (Severe acute respiratory syndrome coronavirus 2, 48 h, read-out: IC50, inhibition of entry of pseudotyped lentiviral particles) was 6.08.
Regarding `CN1C(=O)c2ccccc2[S+]([O-])c2cc([N+](=O)[O-])ccc2S1(=O)=O` (stereo not shown) [formula (Ia), 6-methyl-2-nitrodibenzo[d,g]-[1,6,2]dithiazocin-7(6H)-one 5,5, 12-trioxide], the pIC50 in data set [9] (setting [12]) is 6.17; in data set [9] it was 5.94; in data set [1], > 6.60 and ≤ 6.60; in data set [10] (setting [12]) it was 5.27; in data set [10] it was 5.53. Besides, in data set [4], the “SARS-COV-2 infection compared with vehicle controls” value was “no significant difference”. In addition, the “reduction in SARS-COV-2 infectivity” value in data set [4] is listed as roughly 40%. Further, the CC50 at 72 h in data set [5] is 6.21 µM; in data set [7] it was greater than 100 µM; in data set [8], greater than 100 µM; in [2], greater than 100 µM. The “pseudotype viral entry inhibition” value in data set [6] is listed as “low level of viral entry inhibition”.
Regarding `OC(CNCCNc1ncccc1C(F)(F)F)Cn1ccc2ccccc21` (stereo not shown) [formula (VI), 1-(1H-indol-1-yl)-3-((2-((3-(trifluoromethyl)pyridin-2-yl)amino)ethyl)amino)-propan-2-ol], in [1], the pIC50 was less than 5.30. This molecule gave a CC50 at 72 h in [2] greater than 100 µM.
`CCC(CC)COC(=O)[C@H](C)N[P@](=O)(OC[C@H]1O[C@@](C#N)(c2ccc3c(N)ncnn23)[C@H](O)[C@@H]1O)Oc1ccccc1` [RDV, remdesivir]: the “reduction in dosages in RDV/formula (IIa) combination” value in data set [11] is no less than 2.3 fold.
